PMC4382466 (Toxicologic pathology, 2014)
Where two headings read alike, the source gives them in different places. Blank lines part the entries; values can stand above or below the molecule they belong to.

Tests used:
[1] = tested on: γH2AX; test: γH2AX immunofluorescence staining of bone marrow; format: in vivo, Fischer 344 rats
[2] = tested on: Fischer 344 rats; test: Mesna as mitigating co-treatment of batracylin-induced toxicity; settings: male rats, mesna study, Day 5
[3] = tested on: Fischer 344 rats; settings: rat, in vivo
[4] = tested on: Fischer 344 rats; test: Clinical signs and body weights; format: in vivo; settings: n=6/sex/group
[5] = tested on: Fischer 344 rats; settings: rat, in vivo; remark: listed apart in the source
[6] = tested on: Fischer 344 rats; test: Kidney and urinary bladder histopathology; format: in vivo; settings: 6 animals
[7] = tested on: dogs; settings: two times the mouse LD50; ref NationalTechnicalInformationService; cited from earlier work
[8] = tested on: rats; settings: one-tenth the mouse LD10, ref NationalTechnicalInformationService; cited from earlier work
[9] = tested on: Fischer 344 rats; settings: rat, in vivo; remark: listed apart in the source
[10] = set-up: species or system Fischer 344 rats; settings: in vivo, po
[11] = tested on: γH2AX; test: γH2AX immunofluorescence staining of kidney sections; format: in vivo, Fischer 344 rats; settings: five imaged fields, one rat/sex/group
[12] = oral batracylin 590 mg/m^2; ref Ames et al., 1991; cited from earlier work
[13] = male, Fischer 344, rat, 16 mg/kg
[14] = male, Fischer 344, rat, 32 mg/kg

Molecule: Nc1ccc2c(c1)CN1C(=O)c3ccccc3C1=N2 [batracylin, 8-aminoisoindolo[1,2-b]quinazolin-12(10H)-one]
Bone marrow cellular nuclei γH2AX positive ([1]; 4 of 6 low-dose females (16 mg/kg)): Less than 0.5%
Bone marrow cellular nuclei γH2AX positive ([1]; all 6 low-dose males (16 mg/kg)): Less than 0.5%
Non-inflammatory tubular degeneration, severity [2]: moderate
Tubular epithelial regeneration, severity [2]: mild
Lymphocytes, % of the total WBC population [3]: 19%
Neutrophils, % of the total WBC population [3]: 78%
Rats displaying evidence of toxicity (clinical signs) ([4]; Day 3, high-dose group (32 mg/kg/day)): all of the rats
Rats displaying evidence of toxicity (clinical signs) ([4]; Day 3, low-dose group (16 mg/kg/day)): a third of the rats
Incidence of visibly red urine [5]: 4 of the 6
Kidney: non-inflammatory tubular degeneration, severity (incidence) ([6]; 16 mg/kg/day po x4 days, females): Mild (4), Moderate (2)
Kidney: non-inflammatory tubular degeneration, severity (incidence) ([6]; 16 mg/kg/day po x4 days, males): Mild (6)
Kidney: non-inflammatory tubular degeneration, severity (incidence) ([6]; 32 mg/kg/day po x4 days, females): Moderate (4), Marked (2)
Kidney: non-inflammatory tubular degeneration, severity (incidence) ([6]; 32 mg/kg/day po x4 days, males): Moderate (6)
Toxicity of oral batracylin in dogs [7]: only slight toxicity
Toxicity of oral batracylin in rats [8]: lethal
Protein casts, severity [9]: mild to moderate
Tubular dilation, severity [9]: mild
Urothelial atrophy, severity [9]: mild to moderate
Urothelial vacuolation, severity [9]: minimal to mild
AUC(0-inf) [10, 13]: 118 ng·h/mL
AUC(0-t) [10, 13]: 98.3 ng·h/mL
Cmax [10, 13]: 11.1 ng/mL
Tmax [10, 13]: 4 h
k el [10, 13]: 4.83e-05 s⁻¹
half-life ([10]; male, Fischer 344, rat, 16 mg/kg, Half-life): 4 h
AUC(0-inf) [10, 14]: 144 ng·h/mL
AUC(0-t) [10, 14]: 112 ng·h/mL
Cmax [10, 14]: 11.8 ng/mL
Tmax [10, 14]: 4 h
half-life [10, 14]: 11.1 h
k el [10, 14]: 1.72e-05 s⁻¹
half-life ([10]; male, Fischer 344, rat, 32 mg/kg, Half-life): 11 h
half-life ([10]; male, Fischer 344, rat, 32 mg/kg, half-life): 4 to 11 h
Nuclei γH2AX positive, renal cortex ([11]; female rat, 16 mg/kg batracylin): 22%
Nuclei γH2AX positive, renal cortex ([11]; female rat, 32 mg/kg batracylin): 15%
Nuclei γH2AX positive, renal cortex ([11]; male rat, 16 mg/kg batracylin): 13%
Nuclei γH2AX positive, renal cortex ([11]; male rat, 32 mg/kg batracylin): 29%

increase of AUC0-24 hr for a 2-fold increase in dose ([10]; rat): 2.9 fold
AUC0-24 ([10]; rat, 16 mg/kg): 15150 ng·h/mL
AUC0-∞ ([10]; rat, 16 mg/kg): 15240 ng·h/mL
Cmax ([10]; rat, 16 mg/kg): 2507 ng/mL
Kel ([10]; rat, 16 mg/kg): 0.755 h⁻¹
Tmax ([10]; rat, 16 mg/kg): 4 h
AUC0-24 ([10]; rat, 32 mg/kg): 44620 ng·h/mL
AUC0-∞ ([10]; rat, 32 mg/kg): 45170 ng·h/mL
Cmax ([10]; rat, 32 mg/kg): 7214 ng/mL
Kel ([10]; rat, 32 mg/kg): 0.108 h⁻¹
NAB AUC0-24 hr, times greater than the corresponding value for batracylin ([10]; rat, 32 mg/kg): 398 times
NAB Cmax, times greater than the corresponding value for batracylin ([10]; rat, 32 mg/kg): 611 times
Tmax ([10]; rat, 32 mg/kg): 4 h
Molecule: N-acetylbatracylin [NAB]
Systemic levels of NAB, times greater in the rat than in the mouse [12]: approximately 9 times
